In US20250352530A1, “METHOD AND COMPOSITION FOR TREATING LUNG DISEASES” (MannKind Corporation, priority 2024, published 2025):

Test: Pharmacokinetic study in rats, pulmonary insufflation versus intravenous injection
Format: in vivo, male Sprague Dawley rats
Settings: 0.8 mg/kg single dose; lung samples 10-240 minutes post administration; FIG. 5
Procedure: Pharmacokinetic studies in rats with Compound I crystalline composite (XC) dry powders—Insufflation studies were performed in rats to deliver doses of dry powders of Compound I, a protein kinase antagonist. The study was performed to determine the pharmacokinetics profile of Compound I dry powders made by the process as described above following pulmonary insufflation, or intravenous injection of a single dose of the composition administered in solution to male Sprague Dawley (Charles River Laboratories) adult rats, weighing between 200 g and 250 g at the time of the study. Dry powder comprising 22.1 wt % actual drug content were used and tested at 1 mg/ml in solution to deliver a dose of 0.8 mg/kg to 18 rats in each study group. Rats acclimatized and anesthetized prior to experimentation. Lung and blood samples were taken from the rats at 10, 20, 30, 120, and 240 minutes, post drug administration.

Cc1cccc(-n2ncc(C)c2-c2cc3cnccc3s2)n1 [Compound I, 2-[4-methyl-1-(6-methylpyridin-2-yl)-1H-pyrazol-5-yl]thieno-[3,2-c]pyridine]
content of Compound I in rat lung, insufflation versus IV injection: a higher content of Compound I was detected in rat lung after insufflation versus IV injection for a longer period of time
